Patent publication US20180071238A1, “Compositions and Methods for Traumatized Tissues Using Zinc Chelators” (Ohio University, priority 2015, published 2018)

Test: Zinc dissolution and precipitation in solutions of different pH (naked eye and microscope)
Type: physicochemical
Details: FIGS. 7A-7C
Protocol: Zinc dissolution in acidic solution and zinc precipitation or crystallization in neutral or basic solution is shown in the photographs in FIGS. 7A-7C. The tests were carried out by the application of zinc into solutions.

[Zn+2] [zinc]
solubility of zinc in solution (acidic conditions): generally soluble | solubility of zinc in solution (neutral and basic conditions): tends to crystallize or precipitate
